Laboratory results as given in PMC4681344, “Selective targeting of the BRG/PB1 bromodomains impairs embryonic and trophoblast stem cell maintenance” (Science Advances, 2015).
Each block holds one compound with its values, some of them ahead of it.

Experiments:
[1] = target: T1, full-length GFP-tagged BRM in U2OS cells (Homo sapiens, UniProt P51531); experiment: Fluorescence recovery after photobleaching (FRAP); assay type: cell-based
T1 construct: constructs encoding GFP fused to the N terminus of full-length BRM; expressed in transfected cells; host or cells: U2OS
T1 sequence (P51531 whole entry, the tested form may be a part): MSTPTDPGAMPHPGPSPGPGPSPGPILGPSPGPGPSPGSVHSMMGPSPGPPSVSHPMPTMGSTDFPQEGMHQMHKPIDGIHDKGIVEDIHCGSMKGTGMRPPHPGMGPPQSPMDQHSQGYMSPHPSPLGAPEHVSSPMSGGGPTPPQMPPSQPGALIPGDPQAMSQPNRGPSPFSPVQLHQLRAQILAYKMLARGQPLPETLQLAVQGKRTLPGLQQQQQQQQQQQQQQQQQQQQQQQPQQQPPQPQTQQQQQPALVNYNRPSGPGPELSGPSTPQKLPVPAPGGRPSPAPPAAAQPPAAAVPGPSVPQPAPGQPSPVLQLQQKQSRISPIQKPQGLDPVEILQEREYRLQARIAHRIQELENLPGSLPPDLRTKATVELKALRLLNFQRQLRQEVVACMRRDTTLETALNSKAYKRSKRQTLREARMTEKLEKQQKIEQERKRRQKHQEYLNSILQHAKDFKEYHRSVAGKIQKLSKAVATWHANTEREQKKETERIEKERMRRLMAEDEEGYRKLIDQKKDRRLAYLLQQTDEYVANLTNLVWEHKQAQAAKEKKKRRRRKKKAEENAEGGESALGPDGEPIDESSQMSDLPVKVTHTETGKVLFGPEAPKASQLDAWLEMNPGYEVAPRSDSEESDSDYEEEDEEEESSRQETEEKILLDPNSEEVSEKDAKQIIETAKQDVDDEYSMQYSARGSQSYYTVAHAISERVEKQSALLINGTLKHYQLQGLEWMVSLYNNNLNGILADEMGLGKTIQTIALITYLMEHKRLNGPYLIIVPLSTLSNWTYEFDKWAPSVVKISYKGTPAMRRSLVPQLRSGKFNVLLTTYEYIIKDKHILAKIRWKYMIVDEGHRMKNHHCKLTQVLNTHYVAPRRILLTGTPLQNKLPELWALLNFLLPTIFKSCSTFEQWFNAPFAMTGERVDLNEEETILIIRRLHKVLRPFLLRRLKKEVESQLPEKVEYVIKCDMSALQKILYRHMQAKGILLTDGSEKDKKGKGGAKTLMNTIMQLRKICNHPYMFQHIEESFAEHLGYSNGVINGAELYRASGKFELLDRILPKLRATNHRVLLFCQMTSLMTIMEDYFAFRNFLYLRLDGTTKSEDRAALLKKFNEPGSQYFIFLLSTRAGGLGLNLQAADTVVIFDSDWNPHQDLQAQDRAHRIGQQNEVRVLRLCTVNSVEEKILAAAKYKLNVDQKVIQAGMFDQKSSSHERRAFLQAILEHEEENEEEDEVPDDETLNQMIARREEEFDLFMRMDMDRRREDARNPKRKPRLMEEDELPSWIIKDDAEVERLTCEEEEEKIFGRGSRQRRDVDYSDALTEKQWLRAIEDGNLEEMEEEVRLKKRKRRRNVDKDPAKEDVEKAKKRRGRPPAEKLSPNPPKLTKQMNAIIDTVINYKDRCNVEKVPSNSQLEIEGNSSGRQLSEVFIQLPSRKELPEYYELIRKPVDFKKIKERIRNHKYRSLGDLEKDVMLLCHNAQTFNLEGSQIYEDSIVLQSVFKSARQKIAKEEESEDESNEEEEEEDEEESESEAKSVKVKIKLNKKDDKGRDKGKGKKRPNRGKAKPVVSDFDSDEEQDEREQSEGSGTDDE
Description: FRAP studies were performed using a protocol modified from previous studies ([24]). In brief, U2OS cells were transfected (FuGENE HD, Roche) with mammalian overexpression constructs encoding GFP fused to the N terminus of full-length BRM. The FRAP and imaging system consisted of a Zeiss LSM 710 laser scanning and control system coupled to an inverted Zeiss Axio Observer.Z1 microscope equipped with a high numerical aperture (1.3) 40× oil immersion objective. Samples were placed in an incubator chamber capable of maintaining temperature and humidity. […] Once an initial scan had been taken, a region of interest corresponding to about 50% of the entire GFP-positive nucleus was empirically selected for bleaching. A time-lapse series was then taken to record GFP recovery using 1% of the power used for bleaching. The image data sets and fluorescence recovery data were exported from ZEN 2009, the microscope control software, into Microsoft Excel to determine the average half-time for full recovery for 10 to 20 cells per treatment point.

[2] = tested on: trophoblast stem cells (TSCs); experiment: TSC differentiation gene expression (RNA-seq, qRT-PCR); assay type: cell-based, mouse
Description: Derivation and culture of TSCs were performed as previously described ([34]). Shortly, TSCs were cultured in the absence of feeders in medium supplemented with FGF4 (30 ng/ml; R&D Systems, 235-F4-025/CF), heparin (1.2 μg/ml; Sigma, H3149), and 70% conditional medium (harvested from mitomycin-treated primary mouse embryonic fibroblasts). TSC medium contained RPMI 1640 (BD Biosciences, 354230), 20% ES-qualified fetal bovine serum (Invitrogen), 1% penicillin-streptomycin (Lonza, DE17-602E), 1% L-glutamine (Lonza, BE17-605E), 1% sodium pyruvate (Invitrogen, 11360), and 0.1 mM β-mercaptoethanol. To induce differentiation, TSCs were cultured on feeder-free conditions in TSC medium lacking FGF4 and heparin supplementation.
RNA was isolated as for the ESC samples.
RNA-Seq Library synthesis and analysis were performed at the DKFZ sequencing genomics core facility (Heidelberg, Germany). Mapping and bioinformatics analysis were performed using TopHat, EdgeR Gene-E, and HOMER ([35]–[37]). The raw data from the RNA set results are available through Gene Expression Omnibus (GEO) (accession no. GSE65358). Each replicate represents at least 12 million reads, a density sufficient for qualitative analysis of gene expression. The reads were aligned to the mm10 mouse genome, allowing a mismatch of 2%. We used WebGestalt to find affected pathways ([38]).

supercoiled pBR322 DNA = experiment: DNA unwinding assay; conditions: 1, 5, or 10 μM
Description: DNA incubated with DMSO (Sigma-Aldrich; D8418) in the presence or absence of the enzyme was run as control. After extraction by butanol (Sigma-Aldrich; 281549) and chloroform/isoamyl alcohol 24:1 (Sigma-Aldrich; C0549), the DNA was run in a 1% (w/v) agarose gel (Web Scientific; AGR-500) with a 1-kb DNA ladder (Life Technologies; 10787) for 4 hours at 80 V. The gel was then stained with SYBR Safe for 30 min before ultraviolet visualization (UVP; BioDoc-It Imaging System).

[3] = tested on: embryonic stem cells (CRG8 ESCs); experiment: ESC stemness and differentiation (microscopy, qRT-PCR); assay type: cell-based
Source text: CRG8 ESCs were maintained in serum-containing media supplemented with LIF (1000 U/ml; ESGRO, ESG1106) on feeder-free gelatin-coated wells. ESC culture media contained Dulbecco’s modified Eagle’s medium/knockout (Invitrogen), 15% ES-qualified fetal bovine serum (Invitrogen), 1% penicillin-streptomycin (Lonza, DE17-602E), 1% L-glutamine (Lonza, BE17-605E), 1% sodium pyruvate (Invitrogen, 11360), 1% β-mercaptoethanol, and 1% nonessential amino acids (Invitrogen, 11140). Differentiation of ESCs was induced in the presence of retinoic acid (Sigma, R2625) by withdrawal of LIF supplementation.
qRT-PCR ESC samples were collected by culturing ESC in stemness conditions in the presence of 1 μM PF1-3 or control compound for 1 or 8 days. ESC-differentiated samples were collected by treating the cells with PF1-3 or control compound 24 hours before differentiation induction. RNA was isolated using RNeasy Mini Kit (Qiagen, 74106) following the manufacturer’s instructions. At least two samples were collected for each group, and each qRT-PCR was run in triplicates. The qRT-PCR data were normalized against the housekeeping genes Gapdh, Ppia, and Hprt and expressed against control compound–treated ESC in stemness conditions. A list of primers is compiled in tables S5 and S6.

[4] = tested on: H3K27me3 at Brg1 and Stat3 target genes in ESCs; experiment: ChIP of H3K27me3 in ESCs; assay type: cell-based; conditions: promoters and TSSs, vs PFI-3oMet
Description: ChIP experiments were carried out with Covaris truChIP chromatin shearing reagent according to the manufacturer’s instructions with certain modifications. ESCs were fixed on-plate with 1% formaldehyde in phosphate-buffered saline for 5 min. Cells (10 million) were resuspended in 1 ml of shearing buffer and sonicated (Covaris S220) for 200 cycles per burst, 140 W peak power, 5% duty factor for 15 min in 1-ml Covaris tubes. The supernatant was then diluted to a protein concentration of 1.7 mg ml^−1, and 350 to 500 μg of protein were used for each immunoprecipitation reaction with anti-H3K27me3 (pab-069-050, Diagenode). The targeted gene fragments were amplified with primers used by Ho et al. ([27]).

[5] = tested on: NCI-60 panel of tumor cell lines; experiment: NCI-60 cell proliferation and survival; assay type: cell-based; conditions: 10 μM inhibitor
[6] = Stability in aqueous solution; assay type: physicochemical; conditions: 37°C, read-out: Half-life in aqueous solutions
[7] = tested on: 102 cellular receptors as well as 30 enzyme assays; experiment: Commercial CEREP screening panel
[8] = target: T2, fifth bromodomain of PB1 [PB1(5)] (Homo sapiens, UniProt Q86U86); experiment: Isothermal titration calorimetry (ITC) of SA; assay type: binding; conditions: 15°C, read-out: KD (dissociation constant)
T2 construct: isothermal titration calorimetry (ITC) with the fifth bromodomain of PB1 [PB1(5)]; made in house
T2 sequence (Q86U86 653-763 limits assumed): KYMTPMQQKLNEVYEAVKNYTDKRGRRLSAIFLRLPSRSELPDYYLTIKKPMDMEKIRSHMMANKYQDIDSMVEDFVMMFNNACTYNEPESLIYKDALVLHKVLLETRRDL
Description: Experiments were carried out on a VP-ITC microcalorimeter (MicroCal). All experiments were performed at 15°C in 50 mM Hepes (pH 7.5), 150 mM NaCl. The titrations were conducted using an initial injection of 2 μl followed by 34 identical injections of 8 μl. The dilution heats were measured on separate experiments and were subtracted from the titration data. Thermodynamic parameters were calculated using ΔG = ΔH − TΔS = −RTlnKB, where ΔG, ΔH, and ΔS are the changes in free energy, enthalpy, and entropy of binding, respectively. In all cases, a single binding site model was used.

[9] = tested on: 48 members of the human BRD family; experiment: Thermal shift (ΔTm) selectivity screening; assay type: binding; conditions: profiled against 48 BRDs; compounds at 10 μM
Description: Thermal melting experiments were carried out using an Mx3005P Real-Time PCR machine (Stratagene). Proteins were buffered in 10 mM Hepes (pH 7.5), 500 mM NaCl, and assayed in a 96-well plate at a final concentration of 2 μM in 20-μl volume. Compounds were added at a final concentration of 10 μM. SYPRO Orange (Molecular Probes) was added as a fluorescence probe at a dilution of 1:1000. Excitation and emission filters for the SYPRO Orange dye were set to 465 and 590 nm, respectively. The temperature was raised with a step of 3°C/min from 25° to 96°C, and fluorescence readings were taken at each interval.

BAF BRDs = experiment: Initial library screening for interaction with BAF BRDs; assay type: binding
[10] = 4 days of differentiation, vs control compound

Compound: O=C(/C=C/N1C[C@H]2C[C@@H]1CN2c1ccccn1)c1ccccc1O [PFI-3, (E)-1-(2-hydroxyphenyl)-3-((1R,4R)-5-(pyridin-2-yl)-2,5-diazabicyclo[2.2.1]heptan-2-yl)prop-2-en-1-one]
Half-recovery time of wild-type GFP-BRM (FRAP) ([1]; 2.5 μM SAHA, compound exposure 1 hour): significantly accelerated the half-recovery time
Ability to displace BRM from chromatin after 24 hours ([1]; exposure 24 hours, 37°C): did not show any loss
Transcription of TSC differentiation markers (Prl3d1, Tpbpa) ([2]; 2 μM, differentiation (D4), qRT-PCR): marked increase
Levels of Eomes, Brg1, Brm, and Pbrm1/Baf180 ([2]; qRT-PCR): not affected
Prl7d1 and Tpbpa transcription after washout ([2]; washout of the inhibitor during differentiation): could still be observed after washout of the inhibitor during differentiation of TSCs albeit to a lesser extent
DNA intercalation (supercoiled pBR322 DNA): did not intercalate into DNA
Transcription of stemness genes ([3]; 1 μM, 1 and 8 days, qRT-PCR): initial up- and subsequent down-regulation of stemness genes
Morphological differentiation of ESCs ([3]; 1 μM, 8 days, stemness-maintaining conditions (LIF), vs PFI-3oMet): led to visible differentiation
Gata4 expression [3, 10]: not significantly altered
Nes expression [3, 10]: increased
T (brachyury homolog) transcription [3, 10]: at the expense of the brachyury homolog T transcription
H3K27me3 at Brg1 and Stat3 binding sites [4]: increase of H3K27me3
Toxicity (cell proliferation and survival) [5]: did not result in significant toxicity for any of the cell lines tested
half-life [6]: > 168 h
Interactions in CEREP panel [7]: only interactions against four GPCRs (G protein–coupled receptor) with micromolar affinity

Kd [8]: 250 µM
Compound: O=C(O)c1ccccc1O [SA, salicylic acid]
Selectivity in temperature shift (ΔTm) assay [9]: good selectivity for BRDs present in BRG1/BRM and PB1

Binding to BAF BRDs (BAF BRDs): did not exhibit any binding
Compound: CCOC(=O)Nc1cc(-c2ccc(C)c(NS(C)(=O)=O)c2)nn2c(C)nnc12 [bromosporine]
